Laboratory results taken from paper PMC13198257, “An aerosolized dual-action autotaxin inhibitor-PPARγ agonist for the treatment of pulmonary fibrosis” (Cell Reports Medicine, 2026).

Test system: lung gene expression
Assay: RNA sequencing of lung tissue (BLM/EL244 vs BLM)
Type: in vivo, mouse
Conditions: lung tissue, BLM/EL244 vs BLM
Procedure: RNA quality was assessed using an Agilent TapeStation 4150 with the High Sensitivity […] ScreenTape (Agilent), according to the manufacturer’s protocols. For library preparation, the QuantSeq 3’mRNA-Seq Library Prep Kit (Lexogen) was used according to manufacturer’s instructions. Briefly, 500 ng of RNA from each sample was used for first-strand synthesis, followed by RNA template removal, and second-strand synthesis initiated by random primers. In-line barcodes were introduced at this step, and this was followed by magnetic bead-based purification. The resulting libraries were amplified for 15 cycles and re-purified, with quantity and quality assessed on a Qubit 4 Fluorometer with the Invitrogen Qubit dsDNA HS Assay and an Agilent Tapestation 4150 with the High Sensitivity D1000 assay kit, respectively. The quantified libraries were pooled equimolarly; 50ng of total library mix was used for Adapter Conversion PCR Amplification using the Universal Library Conversion Kit (App-A), Version: V1.0 (MGI Tech Co., Ltd.), according to the manufacturer’s instructions.
The quantity and quality of the purified adapter conversion PCR (AC-PCR) product were evaluated on a Qubit 4 Fluorometer with the Invitrogen Qubit dsDNA HS Assay and on an Agilent Tapestation 4150 with the High Sensitivity D1000 assay kit, respectively. This was followed by DNA denaturation, Single-Strand Circularisation, Enzymatic Digestion, Enzymatic Digestion Product Cleanup and Quality Control steps on 1 pmol of AC-PCR product, according to the Universal Library Conversion Kit (App-A) User Manual (Version: A3).
Finally, 60 fmol of ssCirDNA were used for DNB preparation and sequencing on a DNBSEQ-G400 platform at the BSRC Alexander Fleming Genomics Facility, using a G400 App-A FCS SE100 High-throughput Sequencing Set (MGI Tech Co., Ltd.), according to the manufacturer’s instructions.
Alignment of the FASTQ files was performed against the mouse genome build mm10 using a custom Bash script.[143] Read counting on the 3′ UTRs and differential expression analysis were conducted using the metaseqR2 bioconductor package.[144] Genes corresponding to the following biotypes were excluded: polymorphic_pseudogene, processed_transcript, pseudogene, IG_V_pseudogene, misc_RNA, IG_C_gene, IG_J_gene, IG_D_gene, IG_LV_gene, TR_V_gene, TR_V_pseudogene, TEC, and processed_pseudogene. Gene counts were normalized with DESEQ[145] through metaseqR2. Genes with more than 10 counts in at least 50% of the samples were kept for further processing. For differential expression analysis, the PANDORA algorithm[146] was used to estimate a meta p-value integrating the results from the DESEQ, DESEQ2,[147] edgeR,[148] limma,[149] NBPSeq,[150] and NOISeq[151] algorithms. All additional parameters were set to default values.
Pathway enrichment analysis was performed for the Gene Ontology Biological process (BP) and Molecular Function (MF) terms through GeneCodis 4.[152] The volcano plots, scatterplots, Venn diagrams, and dot plots were generated using the ggplot2 Bioconductor package.

SMILES: O=C1NC(=O)C(Cc2ccc(OCCC3CCN(C(=O)OCc4cc(Cl)cc(Cl)c4)CC3)cc2)S1 (centres unmarked) [EL244, 3,5-dichlorobenzyl 4-(2-(4-((2,4-dioxothiazolidin-5-yl)methyl)phenoxy)ethyl)piperidine-1-carboxylate]
- log2 nFC Hells: -1.30
- log2 nFC Il18bp: -0.95
- log2 nFC Ildr2: -1.32
- log2 nFC Itm2a: -1.25
- log2 nFC Kcnn4: -1.27
- log2 nFC Kdelr3: -1.25
- log2 nFC Kif23: -1.20
- log2 nFC Klhdc8a: -1.02
- log2 nFC Kntc1: -1.39
- log2 nFC Lair1: -0.92
- log2 nFC Lat2: -1.10
- log2 nFC Lcn2: -0.95
- log2 nFC Lgals1: -1.12
- log2 nFC Lgmn: -1.09
- log2 nFC Lilrb4a: -0.89
- log2 nFC Lmnb1: -0.91
- log2 nFC Loxl2: -0.91
- log2 nFC Lrg1: -0.89
- log2 nFC Lum: -1.32
- log2 nFC Mad2l1: -0.97
- log2 nFC Mafb: -0.92
- log2 nFC Mark1: -1.23
- log2 nFC Mcm5: -1.33
- log2 nFC Mdk: -1.34
- log2 nFC Mfap5: -1.12
- log2 nFC Mfrp: -0.87
- log2 nFC Mgp: -1.03
- log2 nFC Mir692-1: -1.18
- log2 nFC Mmp14: -1.31
- log2 nFC Ms4a6c: -0.91
- log2 nFC Ms4a6d: -0.93
- log2 nFC Ncapd2: -1.29
- log2 nFC Ndnf: -0.87
- log2 nFC Nnat: -1.34
- log2 nFC Nrcam: -1.26
- log2 nFC Nrep: -1.26
- log2 nFC P2ry6: -0.93
- log2 nFC Paox: -0.92
- log2 nFC Pcdh7: -1.03
- log2 nFC Pdlim4: -1.24
- log2 nFC Plk4: -1.31
- log2 nFC Polh: -0.87
- log2 nFC Ppic: -1.10
- log2 nFC Prdx4: -0.94
- log2 nFC Psat1: -0.98
- log2 nFC Psrc1: -1.26
- log2 nFC Pth1r: -1.40
- log2 nFC Racgap1: -1.21
- log2 nFC Rcc1: -0.92
- log2 nFC Rgs4: -1.23
- log2 nFC Rgs5: -1.00
- log2 nFC Rhof: -1.02
- log2 nFC S100a4: -1.26
- log2 nFC S100a14: -1.28
- log2 nFC Scn3b: -0.91
- log2 nFC Serpina3g: -1.31
- log2 nFC Serpina3n: -1.22
- log2 nFC Serpine1: -0.98
- log2 nFC Serpine2: -0.87
- log2 nFC Serpinh1: -0.87
- log2 nFC Sertad4: -1.35
- log2 nFC Sfn: -1.19
- log2 nFC Sh2b2: -1.23
- log2 nFC Slamf8: -1.24
- log2 nFC Smc2: -0.98
- log2 nFC Snai1: -0.97
- log2 nFC Spc24: -1.13
- log2 nFC St8sia6: -1.04
- log2 nFC Tacc3: -1.27
- log2 nFC Tiam1: -1.04
- log2 nFC Tlr2: -1.04
- log2 nFC Tnfaip8l1: -1.08
- log2 nFC Tnfrsf11a: -1.12
- log2 nFC Tns4: -1.20
- log2 nFC Traf4: -1.10
- log2 nFC Tubb2b: -1.19
- log2 nFC Tyms: -1.02
- log2 nFC Ulbp1: -1.06
- log2 nFC Vcan: -1.21
- log2 nFC Wfdc17: -1.30
- nFC 1500009L16Rik: 0.43
- nFC 2200002D01Rik: 0.54
- nFC AA467197: 0.38
- nFC Adamts2: 0.50
- nFC Areg: 0.49
- nFC Arhgap11a: 0.46
- nFC Armcx4: 0.40
- nFC Asf1b: 0.45
- nFC Bcl2a1b: 0.45
- nFC Bcl2a1d: 0.41
- nFC Bub1b: 0.44
- nFC C1qtnf5: 0.55
- nFC C1qtnf6: 0.38
- nFC Ccdc8: 0.46
- nFC Ccl9: 0.39
- nFC Ccl17: 0.52
- nFC Cd68: 0.50
- nFC Cd72: 0.50
- nFC Cd248: 0.42
- nFC Cd300c2: 0.54
- nFC Cdca2: 0.40
- nFC Cenpa: 0.40
- nFC Cenpw: 0.40
- nFC Cercam: 0.39
- nFC Ch25h: 0.53
- nFC Cilp: 0.38
- nFC Clcn5: 0.53
- nFC Clec4a2: 0.42
- nFC Clec4n: 0.38
- nFC Clec5a: 0.45
- nFC Clec11a: 0.50
- nFC Clec12a: 0.53
- nFC Col1a2: 0.38
- nFC Col8a1: 0.44
- nFC Col12a1: 0.54
- nFC Col15a1: 0.47
- nFC Col16a1: 0.53
- nFC Cotl1: 0.54
- nFC Csf2rb2: 0.50
- nFC Cstb: 0.52
- nFC Ctsk: 0.51
- nFC Ctss: 0.53
- nFC Cx3cr1: 0.44
- nFC Cyp7b1: 0.38
- nFC Dbn1: 0.54
- nFC Dclk1: 0.55
- nFC Diaph3: 0.46
- nFC Dio2: 0.38
- nFC Dok2: 0.39
- nFC Dut: 0.54
- nFC Egr2: 0.54
- nFC Epha4: 0.54
- nFC F10: 0.46
- nFC Fam20c: 0.48
- nFC Fbn1: 0.49
- nFC Fcgr1: 0.41
- nFC Fcgr2b: 0.47
- nFC Fcrls: 0.39
- nFC Fen1: 0.50
- nFC Fgf13: 0.38
- nFC Fkbp10: 0.42
- nFC Fndc1: 0.46
- nFC Fscn1: 0.43
- nFC Fst: 0.48
- nFC Fstl1: 0.43
- nFC Gas2l3: 0.40
- nFC Gm13889: 0.55
- nFC Gm25380: 0.50
- nFC Gm42674: 0.44
- nFC Gm49339: 0.52
- nFC Hells: 0.41
- nFC Il18bp: 0.52
- nFC Ildr2: 0.40
- nFC Itm2a: 0.42
- nFC Kcnn4: 0.41
- nFC Kdelr3: 0.42
- nFC Kif23: 0.44
- nFC Klhdc8a: 0.49
- nFC Kntc1: 0.38
- nFC Lair1: 0.53
- nFC Lat2: 0.47
- nFC Lcn2: 0.52
- nFC Lgals1: 0.46
- nFC Lgmn: 0.47
- nFC Lilrb4a: 0.54
- nFC Lmnb1: 0.53
- nFC Loxl2: 0.53
- nFC Lrg1: 0.54
- nFC Lum: 0.40
- nFC Mad2l1: 0.51
- nFC Mafb: 0.53
- nFC Mark1: 0.42
- nFC Mcm5: 0.40
- nFC Mdk: 0.40
- nFC Mfap5: 0.46
- nFC Mfrp: 0.55
- nFC Mgp: 0.49
- nFC Mir692-1: 0.44
- nFC Mmp14: 0.40
- nFC Ms4a6c: 0.53
- nFC Ms4a6d: 0.53
- nFC Ncapd2: 0.41
- nFC Ndnf: 0.55
- nFC Nnat: 0.40
- nFC Nrcam: 0.42
- nFC Nrep: 0.42
- nFC P2ry6: 0.52
- nFC Paox: 0.53
- nFC Pcdh7: 0.49
- nFC Pdlim4: 0.42
- nFC Plk4: 0.40
- nFC Polh: 0.55
- nFC Ppic: 0.47
- nFC Prdx4: 0.52
- nFC Psat1: 0.51
- nFC Psrc1: 0.42
- nFC Pth1r: 0.38
- nFC Racgap1: 0.43
- nFC Rcc1: 0.53
- nFC Rgs4: 0.42
- nFC Rgs5: 0.50
- nFC Rhof: 0.49
- nFC S100a4: 0.42
- nFC S100a14: 0.41
- nFC Scn3b: 0.53
- nFC Serpina3g: 0.40
- nFC Serpina3n: 0.43
- nFC Serpine1: 0.51
- nFC Serpine2: 0.55
- nFC Serpinh1: 0.55
- nFC Sertad4: 0.39
- nFC Sfn: 0.44
- nFC Sh2b2: 0.43
- nFC Slamf8: 0.42
- nFC Smc2: 0.51
- nFC Snai1: 0.51
- nFC Spc24: 0.46
- nFC St8sia6: 0.49
- nFC Tacc3: 0.42
- nFC Tiam1: 0.49
- nFC Tlr2: 0.48
- nFC Tnfaip8l1: 0.47
- nFC Tnfrsf11a: 0.46
- nFC Tns4: 0.44
- nFC Traf4: 0.47
- nFC Tubb2b: 0.44
- nFC Tyms: 0.49
- nFC Ulbp1: 0.48
- nFC Vcan: 0.43
- nFC Wfdc17: 0.41
